Test results as given in patent publication US5959109A, “Compounds and methods for increasing endogenous levels of corticotropin-releasing factor” (Neurocrine Biosciences, Inc., priority 1996, dated 1999).
Ends that are not written are not given here.

Legend:
[1] = Automated passive avoidance learning; assay type: in vivo, rat; details: oral, 5 minutes after training period; FIGS. 5A, 5B
Protocol: FIGS. 5A and 5B are graphs depicting the effect of administration of representative ligand inhibitors of this invention, Compound Nos. 97-1 and 153, respectively. The ligand inhibitors were administered 5 minutes post-training period in the passive avoidance test.
The apparatus for both rats and mice is the same as used in active avoidance testing (see Example 14).
For the training trial, the animal is placed individually in one compartment of the learning apparatus, which is separated from a second compartment by a guillotine door. Following a three minute habituation period, the door is opened and the latency to enter the second compartment is recorded. When the animal enters with all four paws, the door is closed, and a 0.5 second AC footshock (Coulburn precision shocker) is delivered. After five seconds, the subject is removed and placed in its home cage. At the time of testing (usually 1-7 days later), the animal is returned to the compartment in which it was initially placed for the learning trial, the door is opened and the latency to enter the second compartment is recorded, but the animal is not shocked. […]
For most strains of rats with weights between 150 and 350 grams, an effective footshock intensity ranges from 0.2-1.0 mA. […] The latency time of rats to enter the dark compartment is measured. […]

[2] = Morris water maze test; assay type: in vivo, rat; details: 1 or 20 mg/kg oral, 15 minutes prior to testing; FIGS. 4A, 4B
Protocol: As discussed in more detail below (see Example 6), 15 minutes prior to training on each of days 1-3, groups of animals orally receive control solution or a dosage of the ligand inhibitor. Control animals typically reach the platform within five to ten seconds after three days of training. The measure of the memory modulator effects of a ligand inhibitor is a shift of this time period. Administration of a ligand inhibitor results in a dose-dependent increase in availability of synaptic CRF and a behavioral dose-dependent increase in acquisition and memory retention.
The Morris Water Maze Test is a simple spatial learning task that requires a minimal amount of stress and experience. […] The latency time to find a hidden platform is monitored. […]
The apparatus used in this test is a pool (46.4 cm in diameter, 45.7 cm high) filled to a depth of 23 cm with opaque water (22° C.-25° C.). […] The animal is placed into a designated quadrant of the tank and the time to approach and ascend the hidden platform is measured; the location of subject placement and platform remain constant throughout the experiment. […]
Rats were treated by oral administration with either vehicle or 1 or 20 mg/kg of either Compound No. 1 or Compound No. 153 15 minutes prior to testing. The latency time to reach the platform in the Morris water maze was recorded for each group.

[3] = Elevated plus-maze test; assay type: in vivo, rat; details: ICV
From the text: The Elevated plus-maze test predicts how animals respond to an approach-avoidance situation involving an exposed, lighted space versus a dark, enclosed area. In the maze, both spaces are elevated off the ground and constitute two runways intersecting in the form of a plus sign. This type of approach-avoidance situation is a classical test of "emotionality" and is very sensitive to treatments that produce disinhibition (such as sedative or hypnotic drugs) and stress. No motivational constraints are necessary and the animal is free to remain in the dark or venture out onto the open arms.
The elevated plus-maze apparatus has four arms (50 cm long, 10 cm wide) situated at right angles to each other and elevated from the floor (50 cm). Two of the arms are enclosed with walls (40 cm high) and two arms have no walls (open arms). Subjects are placed individually into the center of the maze and allowed free access to all four arms for a 5 minute testing period. The time spent in each arm is recorded automatically by photocell beams and a computer interface.
Groups of 7-10 rats receive ICV injections of the ligand inhibitor. For purposes of comparison, rats also receive 0 or 0.1-25 μg of h/rCRF (1-41).

[4] = test system: human CRF-BP; details: cited from earlier work
[5] = test system: CRF receptors; details: rat, in vivo; cited from earlier work
[6] = cited from earlier work
[7] = test system: CRF/CRF-BP complexes; experiment: Disruption of CRF/CRF-BP complexes in human brain tissue in vitro; assay type: binding
From the text: Other peptide molecules, which are distinct from CRF, bind CRF-BP. For example, the human neuropeptide urocortin (Vaughan et al., Nature 378:287, 1995) has a high affinity for human CRF-BP. […] Thus, CRF-BP may be a modulator of a family of CRF-related peptides. […] Such disruption has the effect of increasing free CRF levels, thus making more CRF available for binding to its receptors. The ligand inhibitors of the present invention may also be used to elevate free levels of urocortin and other members of the CRF family in mammals. Assays for measuring the increase of urocortin (as well as other CRF-related peptides) are performed essentially as described herein for CRF, except that the appropriate detection molecules are employed (e.g., antibody to urocortin). Moreover, urocortin, sauvagine, urotensin, and the like and their analogues may be used to inhibit CRF/CRF-BP complexes and raise free CRF levels or inhibit urocortin/CRF-BP complexes and raise free urocortin levels.

With COc1ccc(Cn2c(O)c(C=Nc3ncc(C)s3)c(=O)n(Cc3ccc(OC)cc3OC)c2=S)c(OC)c1 [Compound 153] the “latency time to entering the dark compartment” value [1] was “increase in medium latency time” and the “latency time to reach the platform / performance” value [2] was “improved performance at each time interval”.

For “human CRF: peptide that regulates the release of adrenocorticotropin (ACTH), β-endorphin, and other POMC-derived peptides from the pituitary”, the “time on the open arms / performance” value [3] is given as “significantly more time on the open arms, indicating increased anxiety”, the “affinity for CRF-BP” value [4] is given as “high affinity” and the carbachol-induced behaviors [5] is given as “inhibits carbachol-induced behaviors”. The nocturnal food intake ([6]; rat, in vivo) was “significant decrease on nocturnal food intake”, the “temperature response in brown adipose tissue” value ([6]; rat, in vivo) was “increased temperature response in brown adipose tissue” and the body weight ([6]; rats) was “lowered body weight in rats”.

For “rat urocortin: rat urocortin (DDPPLSIDLTFHLLRTLLELARTQSQRERAEQNRIIFDSV; ends and bridges not checked; UniProt P55090 81-120, looked up)”, the “disruption of CRF/CRF-BP complexes” value [7] was “can disrupt the CRF/CRF-BP complexes”.
